Test results from article PMC3114813 (Environmental Health Perspectives, 2011).

Tests used:
yeast = experiment: YAS, cytotoxicity (turbidity at 620 nm); format: cell-based; details: EC20 = concentration that produces a 20% effect; yeast turbidity
Method: The methods for the YAS have been described previously ([Sohoni and Sumpter 1998]). Briefly, stimulation of the transfected AR causes a color change in the media, which is measured by absorbance at 540 nm (Labsystems Multiskan Multisoft, Vienna, VA, USA). Plates were also measured at 620 nm to measure cell growth (turbidity) to check for any cytotoxic effects that may have occurred. Pesticides were coincubated with DHT (6.4 nM). […] Incubation time was 53 hr at 28°C. […] Pesticide serial dilutions were tested in duplicate over two plates and were tested in two separate experiments.

adult male rats = details: 90 days, ref Ngoula et al. 2007, cited from earlier work
rats = details: 12 mg/kg body weight/day, ref EFSA 2005; cited from earlier work
[1] = stored grain, < 24 weeks; ref EFSA 2005; cited from earlier work
MDA-kb2 cells = details: EC20 = concentration that produces a 20% effect
Method: MDA-kb2 cells are human breast cancer cells stably transfected with a firefly luciferase reporter gene that is driven by an androgen-response element–containing promoter ([Wilson et al. 2002]). Details of the modified assay were published previously ([Ermler et al. 2010]). Briefly, cells were seeded at a concentration of 1 × 10^5 cells/mL in phenol red–free Leibowitz-15 medium (Invitrogen Ltd., Paisley, UK) containing 10% (charcoal-stripped) fetal calf serum (Invitrogen Ltd.) in white luminometer plates and allowed to attach for 24 hr. Cells were then exposed to eight serial dilutions of selected pesticides with or without DHT (0.25 nM). After 24 hr, luciferase activity was determined with SteadyGlo assay reagent (Promega UK Ltd., Southampton, Hampshire, UK) and measured in a plate reader (FLUOstar Optima, BMG Labtech GmbH, Offenburg, Germany). […] All concentrations were tested in duplicate over two plates, and each pesticide was measured at least twice in separate experiments. For comparative purposes, luminescence was normalized to DHT alone at coexposure concentration (maximum response, 100%) and solvent-only (ethanol) controls (minimum response, 0%). […] Pesticides were initially tested over a concentration range of 0.64 nM–50 μM (5× dilutions) as a range-finding exercise. Subsequently, the concentration ranges were modified to reflect the potency and toxicity of each individual compound. […] Sixty percent of the pesticides were repeat tested using the same product but with new stock solutions and by a different experimenter.
To analyze antiandrogenic action, raw luminescence readings were normalized on a plate-by-plate basis to the means of the positive DHT controls (n = 8) and the solvent controls (n = 8) ([Ermler et al. 2010]). […] Specifically, a variety of nonlinear regression models were fitted independently to the same data set, and the best-fitting model was selected using a statistical goodness-of-fit criterion. […] Data considered to be statistically significant at p < 0.05 were analyzed using the best-fit approach as described above. All statistical analysis was performed using SAS statistical software (SAS Institute Inc., Cary, NC, USA). From the best-fitting model, we derived inhibitory concentrations for antiandrogenicity and effect concentrations for cytotoxicity.

SMILES: CCN(CC)c1nc(C)cc(OP(=S)(OC)OC)n1 [Pirimiphos-methyl]
- Cytotoxic EC20 (μM) YAS (yeast): > 200 µM
- Fertility (adult male rats; 125 mg/kg body weight/day): decreased fertility
- Sperm density and mobility (adult male rats; 125 mg/kg body weight/day): decreased sperm density and mobility
- Testicular atrophy, lowest observed adverse effect level (adult male rats): 41.67 mg/kg body weight/day
- Testicular effect of maternal and postnatal exposure (rats): testicular tubular atrophy
- Unchanged parent compound on stored grain [1]: 70%
- Cytotoxic EC20 (μM) MDA-kb2 (MDA-kb2 cells): > 50 µM
